ChEMBL document CHEMBL1136259, “Synthesis of 2-substituted-pyrrolidinethiourea derivatives and their antagonist effect on vanilloid receptor” (Bioorg Med Chem Lett, 2003)

Columns and labels:
[1] = organism: Rattus norvegicus; experiment: Agonist activity tested in [Ca2+] -influx assay by using neonatal rat cultured spinal sensory neurons; assay type: functional
[2] = organism: Rattus norvegicus; experiment: Antagonist activity tested in [Ca2+] -influx assay by using neonatal rat cultured spinal sensory neurons; assay type: functional

EC50 [1] [µM]	IC50 [2] [µM]	Structure (SMILES)
> 100	> 100	COc1cc(C2CCCN2/C(S)=N/CCc2ccccc2)ccc1O (stereo not given)
> 100	55	Oc1ccc(CCC2CCCN2/C(S)=N/CCc2ccccc2)cc1O (stereo not given)
> 100	> 100	Oc1ccc(C2CCCN2/C(S)=N/CCc2ccccc2)cc1O (stereo not given)
> 100	3	COc1cc(CCC2CCCN2/C(S)=N/CCc2ccccc2)ccc1O (stereo not given)
> 100	0.6	Oc1cc2c(cc1O)CN(C(=S)NCCc1ccc(Cl)cc1)CCC2 [CAPSAZEPINE]
